According to patent US12209087B2, “AKT1 modulators” (Alterome Therapeutics, Inc., priority 2022, dated 2025):

Molecular target: T1, full length AKT E17K (Homo sapiens, UniProt P31749, E17K)
T1 construct: host or cells: HEK-293 (ATCC CRL-1573)
Experiment: NanoBRET Target Engagement (TE) Assay
Assay type: cell-based
Conditions: competitive displacement of tracer in cells, read-out: AKT1 E17K IC50
Outline: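 Compound and tracer incubated 2 h before luminescence at donor 450 nm and acceptor 600 nm, with extracellular signal inhibited. EC50 by sigmoidal variable-slope regression.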

T1 sequence (P31749 whole entry E17K): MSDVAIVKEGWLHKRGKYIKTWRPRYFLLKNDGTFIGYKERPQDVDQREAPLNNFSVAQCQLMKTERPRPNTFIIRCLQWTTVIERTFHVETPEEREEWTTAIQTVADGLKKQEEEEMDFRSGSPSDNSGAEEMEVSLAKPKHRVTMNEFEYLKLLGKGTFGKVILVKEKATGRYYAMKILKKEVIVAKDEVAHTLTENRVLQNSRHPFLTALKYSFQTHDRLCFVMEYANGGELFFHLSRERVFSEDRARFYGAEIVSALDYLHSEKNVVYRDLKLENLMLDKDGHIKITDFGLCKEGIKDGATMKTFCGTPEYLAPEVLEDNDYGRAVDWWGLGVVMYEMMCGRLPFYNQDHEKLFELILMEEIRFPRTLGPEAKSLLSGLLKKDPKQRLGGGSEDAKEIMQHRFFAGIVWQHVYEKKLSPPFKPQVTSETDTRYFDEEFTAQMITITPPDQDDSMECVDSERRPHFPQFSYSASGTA

SMILES: [2H]C([2H])([2H])N(c1ccnc(C#N)n1)C1CCN(C([2H])([2H])c2ccc(-n3c(-c4cccnc4N)nc4ccc(-c5ccc(F)cc5)nc43)cc2)CC1 [Example 442, 4-((1-((4-(2-(2-Aminopyridin-3-yl)-5-(4-fluorophenyl)-3H-imidazo[4,5-b]pyridin-3-yl)phenyl)methyl-d2)piperidin-4-yl)(methyl-d3)amino)pyrimidine-2-carbonitrile]
- IC50: < 15 nM

SMILES: N#Cc1nccc(NC2CN(Cc3ccc(-n4c(-c5cccnc5N)nc5ccc(-c6ccc(F)cc6)nc54)cc3)C2)n1 [Example 443, 4-((1-(4-(2-(2-Aminopyridin-3-yl)-5-(4-fluorophenyl)-3H-imidazo[4,5-b]pyridin-3-yl)benzyl)azetidin-3-yl)amino)pyrimidine-2-carbonitrile]
- IC50: < 15 nM

SMILES: N#Cc1nccc(NC2CC3(CCN(Cc4ccc(-n5c(-c6cccnc6N)nc6ccc(-c7ccc(F)cc7)nc65)cc4)CC3)C2)n1 [Example 444, 4-((7-(4-(2-(2-Aminopyridin-3-yl)-5-(4-fluorophenyl)-3H-imidazo[4,5-b]pyridin-3-yl)benzyl)-7-azaspiro[3.5]nonan-2-yl)amino)pyrimidine-2-carbonitrile]
- IC50: 15 to 60 nM

SMILES: N#Cc1nccc(NC2CC3(C2)CN(Cc2ccc(-n4c(-c5cccnc5N)nc5ccc(-c6ccc(F)cc6)nc54)cc2)C3)n1 [Example 445, 4-((2-(4-(2-(2-Aminopyridin-3-yl)-5-(4-fluorophenyl)-3H-imidazo[4,5-b]pyridin-3-yl)benzyl)-2-azaspiro[3.3]heptan-6-yl)amino)pyrimidine-2-carbonitrile]
- IC50: < 15 nM

SMILES: N#Cc1nccc(NC2CCC3(CC2)CN(Cc2ccc(-n4c(-c5cccnc5N)nc5ccc(-c6ccc(F)cc6)nc54)cc2)C3)n1 [Example 446, 4-((2-(4-(2-(2-Aminopyridin-3-yl)-5-(4-fluorophenyl)-3H-imidazo[4,5-b]pyridin-3-yl)benzyl)-2-azaspiro[3.5]nonan-7-yl)amino)pyrimidine-2-carbonitrile]
- IC50: 15 to 60 nM

SMILES: N#Cc1nccc(N2CC3(CN(Cc4ccc(-n5c(-c6cccnc6N)nc6ccc(-c7ccc(F)cc7)nc65)cc4)C3)C2)n1 [Example 447, 4-(6-(4-(2-(2-Aminopyridin-3-yl)-5-(4-fluorophenyl)-3H-imidazo[4,5-b]pyridin-3-yl)benzyl)-2,6-diazaspiro[3.3]heptan-2-yl)pyrimidine-2-carbonitrile]
- IC50: < 15 nM

SMILES: N#Cc1nccc(N2CC3CCC(C2)N3Cc2ccc(-n3c(-c4cccnc4N)nc4ccc(-c5ccc(F)cc5)nc43)cc2)n1 [Example 448, 4-(8-(4-(2-(2-Aminopyridin-3-yl)-5-(4-fluorophenyl)-3H-imidazo[4,5-b]pyridin-3-yl)benzyl)-3,8-diazabicyclo[3.2.1]octan-3-yl)pyrimidine-2-carbonitrile]
- IC50: 15 to 60 nM

SMILES: N#Cc1nccc(N2C[C@H]3CN(Cc4ccc(-n5c(-c6cccnc6N)nc6ccc(-c7ccc(F)cc7)nc65)cc4)C[C@H]3C2)n1 [Example 449, 4-((3aR,6aS)-5-(4-(2-(2-Aminopyridin-3-yl)-5-(4-fluorophenyl)-3H-imidazo[4,5-b]pyridin-3-yl)benzyl)hexahydropyrrolo[3,4-c]pyrrol-2(1H)-yl)pyrimidine-2-carbonitrile]
- IC50: 15 to 60 nM

SMILES: N#Cc1nccc(N2C[C@@H]3CN(Cc4ccc(-n5c(-c6cccnc6N)nc6ccc(-c7ccc(F)cc7)nc65)cc4)C[C@H]3C2)n1 [Example 450, 4-((3aS,6aS)-5-(4-(2-(2-Aminopyridin-3-yl)-5-(4-fluorophenyl)-3H-imidazo[4,5-b]pyridin-3-yl)benzyl)hexahydropyrrolo[3,4-c]pyrrol-2(1H)-yl)pyrimidine-2-carbonitrile]
- IC50: 15 to 60 nM

SMILES: [2H]C1(Nc2ccnc(C#N)n2)CCN(Cc2ccc(-n3c(-c4cccnc4N)nc4ccc(-c5ccc(F)cc5)nc43)cc2)CC1 [Example 451, 4-((1-(4-(2-(2-Aminopyridin-3-yl)-5-(4-fluorophenyl)-3H-imidazo[4,5-b]pyridin-3-yl)benzyl)piperidin-4-yl-4-d)amino)pyrimidine-2-carbonitrile]
- IC50: < 15 nM

SMILES: [2H]C1(Nc2ccnc(C#N)n2)CCN(Cc2ccc(-n3c(-c4cccnc4N)nc4cc(C)c(C)nc43)cc2)CC1 [Example 452, 4-((1-(4-(2-(2-Aminopyridin-3-yl)-5,6-dimethyl-3H-imidazo[4,5-b]pyridin-3-yl)benzyl)piperidin-4-yl-4-d)amino)pyrimidine-2-carbonitrile]
- IC50: < 15 nM

SMILES: N#Cc1nccc(NC2CCN(Cc3ccc(-n4c(-c5cccnc5N)nc5ccc(C6=CCCC6)nc54)cc3)CC2)n1 [Example 453, 4-((1-(4-(2-(2-aminopyridin-3-yl)-5-(cyclopent-1-en-1-yl)-3H-imidazo[4,5-b]pyridin-3-yl)benzyl)piperidin-4-yl)amino)pyrimidine-2-carbonitrile]
- IC50: < 15 nM

SMILES: C=Cc1ccc2nc(-c3cccnc3N)n(-c3ccc(CN4CCC(Nc5ccnc(C#N)n5)CC4)cc3)c2n1 [Example 454, 4-((1-(4-(2-(2-Aminopyridin-3-yl)-5-vinyl-3H-imidazo[4,5-b]pyridin-3-yl)benzyl)piperidin-4-yl)amino)pyrimidine-2-carbonitrile]
- IC50: < 15 nM

SMILES: [2H]C([2H])([2H])N(c1ccnc(C#N)n1)C1CCN(Cc2ccc(-n3c(-c4cccnc4N)nc4cc(C)c(C)nc43)cc2)CC1 [Example 455, 4-((1-(4-(2-(2-Aminopyridin-3-yl)-5,6-dimethyl-3H-imidazo[4,5-b]pyridin-3-yl)benzyl)piperidin-4-yl)(methyl-d3)amino)pyrimidine-2-carbonitrile]
- IC50: < 15 nM

SMILES: N#Cc1nccc(NC2CCN(Cc3ccc(-n4c(-c5cccnc5N)nc5ccc(-c6ccc(F)cn6)nc54)cc3)CC2)n1 [Example 456, 4-((1-(4-(2-(2-Aminopyridin-3-yl)-5-(5-fluoropyridin-2-yl)-3H-imidazo[4,5-b]pyridin-3-yl)benzyl)piperidin-4-yl)amino)pyrimidine-2-carbonitrile]
- IC50: < 15 nM

SMILES: CNc1ccc2nc(-c3cccnc3N)n(-c3ccc(CN4CCC(Nc5ccnc(C#N)n5)CC4)cc3)c2n1 [Example 457, 4-((1-(4-(2-(2-Aminopyridin-3-yl)-5-(methylamino)-3H-imidazo[4,5-b]pyridin-3-yl)benzyl)piperidin-4-yl)amino)pyrimidine-2-carbonitrile]
- IC50: 15 to 60 nM

SMILES: [2H]C([2H])([2H])N(c1ccc2nc(-c3cccnc3N)n(-c3ccc(CN4CCC(Nc5ccnc(C#N)n5)CC4)cc3)c2n1)C([2H])([2H])[2H] [Example 458, 4-((1-(4-(2-(2-Aminopyridin-3-yl)-5-(bis(methyl-d3)amino)-3H-imidazo[4,5-b]pyridin-3-yl)benzyl)piperidin-4-yl)amino)pyrimidine-2-carbonitrile]
- IC50: < 15 nM

SMILES: [2H]C([2H])([2H])Nc1ccc2nc(-c3cccnc3N)n(-c3ccc(CN4CCC(Nc5ccnc(C#N)n5)CC4)cc3)c2n1 [Example 459, 4-((1-(4-(2-(2-Aminopyridin-3-yl)-5-((methyl-d3)amino)-3H-imidazo[4,5-b]pyridin-3-yl)benzyl)piperidin-4-yl)amino)pyrimidine-2-carbonitrile]
- IC50: < 15 nM

SMILES: N#Cc1nccc(NC2CCN(Cc3ccc(-n4c(-c5cccnc5N)nc5ccc(N6CCC6)nc54)cc3)CC2)n1 [Example 460, 4-((1-(4-(2-(2-Aminopyridin-3-yl)-5-(azetidin-1-yl)-3H-imidazo[4,5-b]pyridin-3-yl)benzyl)piperidin-4-yl)amino)pyrimidine-2-carbonitrile]
- IC50: < 15 nM

SMILES: N#Cc1nccc(NC2CCN(Cc3ccc(-n4c(-c5cccnc5N)nc5ccc(-c6cnoc6)nc54)cc3)CC2)n1 [Example 461, 4-((1-(4-(2-(2-Aminopyridin-3-yl)-5-(isoxazol-4-yl)-3H-imidazo[4,5-b]pyridin-3-yl)benzyl)piperidin-4-yl)amino)pyrimidine-2-carbonitrile]
- IC50: < 15 nM

SMILES: N#Cc1nccc(NC2CCN(Cc3ccc(-n4c(-c5cccnc5N)nc5ccc(-c6cnco6)nc54)cc3)CC2)n1 [Example 462, 4-((1-(4-(2-(2-Aminopyridin-3-yl)-5-(oxazol-5-yl)-3H-imidazo[4,5-b]pyridin-3-yl)benzyl)piperidin-4-yl)amino)pyrimidine-2-carbonitrile]
- IC50: < 15 nM

SMILES: Cc1oncc1-c1ccc2nc(-c3cccnc3N)n(-c3ccc(CN4CCC(Nc5ccnc(C#N)n5)CC4)cc3)c2n1 [Example 463, 4-((1-(4-(2-(2-Aminopyridin-3-yl)-5-(5-methylisoxazol-4-yl)-3H-imidazo[4,5-b]pyridin-3-yl)benzyl)piperidin-4-yl)amino)pyrimidine-2-carbonitrile]
- IC50: < 15 nM

SMILES: Cc1nocc1-c1ccc2nc(-c3cccnc3N)n(-c3ccc(CN4CCC(Nc5ccnc(C#N)n5)CC4)cc3)c2n1 [Example 464, 4-((1-(4-(2-(2-Aminopyridin-3-yl)-5-(3-methylisoxazol-4-yl)-3H-imidazo[4,5-b]pyridin-3-yl)benzyl)piperidin-4-yl)amino)pyrimidine-2-carbonitrile]
- IC50: < 15 nM

SMILES: Cc1cc(-c2ccc3nc(-c4cccnc4N)n(-c4ccc(CN5CCC(Nc6ccnc(C#N)n6)CC5)cc4)c3n2)[nH]n1 [Example 465, 4-((1-(4-(2-(2-Aminopyridin-3-yl)-5-(3-methyl-1H-pyrazol-5-yl)-3H-imidazo[4,5-b]pyridin-3-yl)benzyl)piperidin-4-yl)amino)pyrimidine-2-carbonitrile]
- IC50: < 15 nM

SMILES: CCn1cc(-c2ccc3nc(-c4cccnc4N)n(-c4ccc(CN5CCC(Nc6ccnc(C#N)n6)CC5)cc4)c3n2)cn1 [Example 466, 4-((1-(4-(2-(2-Aminopyridin-3-yl)-5-(1-ethyl-1H-pyrazol-4-yl)-3H-imidazo[4,5-b]pyridin-3-yl)benzyl)piperidin-4-yl)amino)pyrimidine-2-carbonitrile]
- IC50: < 15 nM

SMILES: Cn1nccc1-c1ccc2nc(-c3cccnc3N)n(-c3ccc(CN4CCC(Nc5ccnc(C#N)n5)CC4)cc3)c2n1 [Example 467, 4-((1-(4-(2-(2-Aminopyridin-3-yl)-5-(1-methyl-1H-pyrazol-5-yl)-3H-imidazo[4,5-b]pyridin-3-yl)benzyl)piperidin-4-yl)amino)pyrimidine-2-carbonitrile]
- IC50: < 15 nM
